Reference: US20260015358A1, “BICYCLIC DERIVATIVES, COMPOSITIONS AND USES THEREOF” (Danatlas Pharmaceuticals Co., Ltd., priority 2023, published 2026)

What was measured:
[1] = target: T1, WRN [UniPro: Q14191 (WRN_HUMAN), N500-C946] (Homo sapiens (Human), UniProt Q14191); test: WRN unwinding assay (FORKF DNA, fluorescence); format: biochemical; settings: Table 14
[2] = target: T1, WRN [UniPro: Q14191 (WRN_HUMAN), N500-C946]; test: WRN ATPase assay (ADP-Glo); format: biochemical; settings: WRN enzymatic activity assay

T1 sequence (Q14191 500-946): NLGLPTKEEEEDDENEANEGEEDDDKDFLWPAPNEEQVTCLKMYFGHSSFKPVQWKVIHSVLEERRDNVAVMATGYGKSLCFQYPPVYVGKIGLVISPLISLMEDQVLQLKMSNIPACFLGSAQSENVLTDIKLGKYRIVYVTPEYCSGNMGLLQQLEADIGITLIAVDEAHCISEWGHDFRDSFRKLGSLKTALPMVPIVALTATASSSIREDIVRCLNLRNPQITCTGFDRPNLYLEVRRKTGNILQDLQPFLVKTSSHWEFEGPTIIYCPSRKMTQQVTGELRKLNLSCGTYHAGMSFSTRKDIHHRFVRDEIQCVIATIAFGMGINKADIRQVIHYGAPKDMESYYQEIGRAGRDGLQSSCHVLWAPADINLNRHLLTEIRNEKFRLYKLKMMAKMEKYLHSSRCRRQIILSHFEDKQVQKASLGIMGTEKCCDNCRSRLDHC

SMILES | IC50 [1] | IC50 [2]
CCc1c(N2CCN(C(=O)c3cc4cnccc4[nH]3)CC2)c(=O)n2nc(C3=CCOCC3)nc2n1CC(=O)Nc1ccc(C(F)(F)F)cc1Cl [Example 313, 2-(6-(4-(1H-Pyrrolo[3,2-c]pyridine-2-carbonyl)piperazin-1-yl)-2-(3,6-dihydro-2H-pyran-4-yl)-5-ethyl-7-oxo-[1,2,4]triazolo[1,5-a]pyrimidin-4(7H)-yl)-N-(2-chloro-4-(trifluoromethyl)phenyl)acetamide] | 0.1 to 1 µM | 0.1 to 1 µM
CCc1c(N2CCN(C(=O)c3c(OC)cn[nH]c3=O)CC2)c(=O)n2nc(C3=CCOCC3)nc2n1CC(=O)Nc1ccc(C(F)(F)F)cc1Cl [Example 314, N-(2-Chloro-4-(trifluoromethyl)phenyl)-2-(2-(3,6-dihydro-2H-pyran-4-yl)-5-ethyl-6-(4-(3-hydroxy-5-methoxypyridazine-4-carbonyl)piperazin-1-yl)-7-oxo-[1,2,4]triazolo[1,5-a]pyrimidin-4(7H)-yl)acetamide] | > 1 µM | 0.1 to 1 µM
CCc1c(N2CCN(C(=O)CN(C)C(C)=O)CC2)c(=O)n2nc(C3=CCOCC3)nc2n1CC(=O)Nc1ccc(C(F)(F)F)cc1Cl [Example 323, 2-(6-(4-(N-Acetyl-N-methylglycyl)piperazin-1-yl)-2-(3,6-dihydro-2H-pyran-4-yl)-5-ethyl-7-oxo-[1,2,4]triazolo[1,5-a]pyrimidin-4(7H)-yl)-N-(2-chloro-4-(trifluoromethyl)phenyl)acetamide] | 0.1 to 1 µM | 0.1 to 1 µM
CCc1c(N2CCN(C(=O)C(=O)Nc3cc(C)ns3)CC2)c(=O)n2nc(C3=CCOCC3)nc2n1CC(=O)Nc1ccc(C(F)(F)F)cc1F [Example 325, 2-(4-(2-(3,6-Dihydro-2H-pyran-4-yl)-5-ethyl-4-(2-((2-fluoro-4-(trifluoromethyl)phenyl)amino)-2-oxoethyl)-7-oxo-4,7-dihydro-[1,2,4]triazolo[1,5-a]pyrimidin-6-yl)piperazin-1-yl)-N-(3-methylisothiazol-5-yl)-2-oxoacetamide] | < 0.1 µM | < 0.1 µM
CCc1c(N2CCN(C(=O)C(=O)N(C)C)CC2)c(=O)n2nc(C3=CCOCC3)nc2n1CC(=O)Nc1ccc(C(F)(F)F)cc1Cl [Example 326, 2-(4-(4-(2-((2-Chloro-4-(trifluoromethyl)phenyl)amino)-2-oxoethyl)-2-(3,6-dihydro-2H-pyran-4-yl)-5-ethyl-7-oxo-4,7-dihydro-[1,2,4]triazolo[1,5-a]pyrimidin-6-yl)piperazin-1-yl)-N,N-dimethyl-2-oxoacetamide] | < 0.1 µM | 0.1 to 1 µM
CCc1c(N2CCN(C(=O)C(=O)Nc3ccccc3)CC2)c(=O)n2nc(C3=CCOCC3)nc2n1CC(=O)Nc1ccc(C(F)(F)F)cc1Cl [Example 327, 2-(4-(4-(2-((2-Chloro-4-(trifluoromethyl)phenyl)amino)-2-oxoethyl)-2-(3,6-dihydro-2H-pyran-4-yl)-5-ethyl-7-oxo-4,7-dihydro-[1,2,4]triazolo[1,5-a]pyrimidin-6-yl)piperazin-1-yl)-2-oxo-N-phenylacetamide] | 0.1 to 1 µM | 0.1 to 1 µM
CCc1c(N2CCN(C(=O)C(=O)NC)CC2)c(=O)n2nc(C3=CCOCC3)nc2n1CC(=O)Nc1ccc(C(F)(F)F)cc1Cl [Example 329, 2-(4-(4-(2-((2-Chloro-4-(trifluoromethyl)phenyl)amino)-2-oxoethyl)-2-(3,6-dihydro-2H-pyran-4-yl)-5-ethyl-7-oxo-4,7-dihydro-[1,2,4]triazolo[1,5-a]pyrimidin-6-yl)piperazin-1-yl)-N-methyl-2-oxoacetamide] | 0.1 to 1 µM | 0.1 to 1 µM
CCc1c(N2CCN(C(=O)C(=O)NOC)CC2)c(=O)n2nc(C3=CCOCC3)nc2n1CC(=O)Nc1ccc(C(F)(F)F)cc1Cl [Example 330, 2-(4-(4-(2-((2-Chloro-4-(trifluoromethyl)phenyl)amino)-2-oxoethyl)-2-(3,6-dihydro-2H-pyran-4-yl)-5-ethyl-7-oxo-4,7-dihydro-[1,2,4]triazolo[1,5-a]pyrimidin-6-yl)piperazin-1-yl)-N-methoxy-2-oxoacetamide] | < 0.1 µM | < 0.1 µM
CCc1c(N2CCN(C(=O)C(=O)Nc3cc(C)[nH]n3)CC2)c(=O)n2nc(C3=CCOCC3)nc2n1CC(=O)Nc1ccc(C(F)(F)F)cc1Cl [Example 331, 2-(4-(4-(2-((2-Chloro-4-(trifluoromethyl)phenyl)amino)-2-oxoethyl)-2-(3,6-dihydro-2H-pyran-4-yl)-5-ethyl-7-oxo-4,7-dihydro-[1,2,4]triazolo[1,5-a]pyrimidin-6-yl)piperazin-1-yl)-N-(5-methyl-1H-pyrazol-3-yl)-2-oxoacetamide] | < 0.1 µM | < 0.1 µM
CCc1c(N2CCN(C(=O)C(=O)Nc3nccs3)CC2)c(=O)n2nc(C3=CCOCC3)nc2n1CC(=O)Nc1ccc(C(F)(F)F)cc1Cl [Example 332, 2-(4-(4-(2-((2-Chloro-4-(trifluoromethyl)phenyl)amino)-2-oxoethyl)-2-(3,6-dihydro-2H-pyran-4-yl)-5-ethyl-7-oxo-4,7-dihydro-[1,2,4]triazolo[1,5-a]pyrimidin-6-yl)piperazin-1-yl)-2-oxo-N-(thiazol-2-yl)acetamide] | < 0.1 µM | < 0.1 µM
CCc1c(N2CCN(C(=O)C(=O)Nc3ccn[nH]3)CC2)c(=O)n2nc(C3=CCOCC3)nc2n1CC(=O)Nc1ccc(C(F)(F)F)cc1Cl [Example 333, 2-(4-(4-(2-((2-Chloro-4-(trifluoromethyl)phenyl)amino)-2-oxoethyl)-2-(3,6-dihydro-2H-pyran-4-yl)-5-ethyl-7-oxo-4,7-dihydro-[1,2,4]triazolo[1,5-a]pyrimidin-6-yl)piperazin-1-yl)-2-oxo-N-(1H-pyrazol-5-yl)acetamide] | < 0.1 µM | < 0.1 µM
CCc1c(N2CCN(C(=O)C(=O)Nc3cncs3)CC2)c(=O)n2nc(C3=CCOCC3)nc2n1CC(=O)Nc1ccc(C(F)(F)F)cc1Cl [Example 334, 2-(4-(4-(2-((2-Chloro-4-(trifluoromethyl)phenyl)amino)-2-oxoethyl)-2-(3,6-dihydro-2H-pyran-4-yl)-5-ethyl-7-oxo-4,7-dihydro-[1,2,4]triazolo[1,5-a]pyrimidin-6-yl)piperazin-1-yl)-2-oxo-N-(thiazol-5-yl)acetamide] | < 0.1 µM | < 0.1 µM
CCc1c(N2CCN(C(=O)C(=O)Nc3cscn3)CC2)c(=O)n2nc(C3=CCOCC3)nc2n1CC(=O)Nc1ccc(C(F)(F)F)cc1Cl [Example 335, 2-(4-(4-(2-((2-Chloro-4-(trifluoromethyl)phenyl)amino)-2-oxoethyl)-2-(3,6-dihydro-2H-pyran-4-yl)-5-ethyl-7-oxo-4,7-dihydro-[1,2,4]triazolo[1,5-a]pyrimidin-6-yl)piperazin-1-yl)-2-oxo-N-(thiazol-4-yl)acetamide] | < 0.1 µM | 0.1 to 1 µM

Further lines, results first:

IC50 [1] | IC50 [2] | SMILES
< 0.1 µM | < 0.1 µM | CCc1c(N2CCN(C(=O)c3cnn4cccc4c3O)CC2)c(=O)n2nc(C3=CCOCC3)nc2n1CC(=O)Nc1ccc(C(F)(F)F)cc1F [Example 318, 2-(2-(3,6-Dihydro-2H-pyran-4-yl)-5-ethyl-6-(4-(4-hydroxypyrrolo[1,2-b]pyridazine-3-carbonyl)piperazin-1-yl)-7-oxo-[1,2,4]triazolo[1,5-a]pyrimidin-4(7H)-yl)-N-(2-fluoro-4-(trifluoromethyl)phenyl)acetamide]
< 0.1 µM | < 0.1 µM | CCc1c(N2CCN(C(=O)CNC(=O)c3c(F)cccc3Cl)CC2)c(=O)n2nc(C3=CCOCC3)nc2n1CC(=O)Nc1ccc(C(F)(F)F)cc1Cl [Example 319, 2-Chloro-N-(2-(4-(4-(2-((2-chloro-4-(trifluoromethyl)phenyl)amino)-2-oxoethyl)-2-(3,6-dihydro-2H-pyran-4-yl)-5-ethyl-7-oxo-4,7-dihydro-[1,2,4]triazolo[1,5-a]pyrimidin-6-yl)piperazin-1-yl)-2-oxoethyl)-6-fluorobenzamide]
< 0.1 µM | < 0.1 µM | CCc1c(N2CCN(C(=O)CNC(=O)CC(C)C)CC2)c(=O)n2nc(C3=CCOCC3)nc2n1CC(=O)Nc1ccc(C(F)(F)F)cc1Cl [Example 320, N-(2-(4-(4-(2-((2-Chloro-4-(Trifluoromethyl)phenyl)amino)-2-oxoethyl)-2-(3,6-dihydro-2H-pyran-4-yl)-5-ethyl-7-oxo-4,7-dihydro-[1,2,4]triazolo[1,5-a]pyrimidin-6-yl)piperazin-1-yl)-2-oxoethyl)-3-methylbutanamide]
< 0.1 µM | 0.1 to 1 µM | CCc1c(N2CCN(C(=O)CNC(=O)[C@H]3CCCO3)CC2)c(=O)n2nc(C3=CCOCC3)nc2n1CC(=O)Nc1ccc(C(F)(F)F)cc1Cl [Example 321, (R)—N-(2-(4-(4-(2-((2-Chloro-4-(trifluoromethyl)phenyl)amino)-2-oxoethyl)-2-(3,6-dihydro-2H-pyran-4-yl)-5-ethyl-7-oxo-4,7-dihydro-[1,2,4]triazolo[1,5-a]pyrimidin-6-yl)piperazin-1-yl)-2-oxoethyl)tetrahydrofuran-2-carboxamide]
< 0.1 µM | < 0.1 µM | CCc1c(N2CCN(C(=O)CNC(=O)[C@@H]3CCCO3)CC2)c(=O)n2nc(C3=CCOCC3)nc2n1CC(=O)Nc1ccc(C(F)(F)F)cc1Cl [Example 322, (S)—N-(2-(4-(4-(2-((2-Chloro-4-(trifluoromethyl)phenyl)amino)-2-oxoethyl)-2-(3,6-dihydro-2H-pyran-4-yl)-5-ethyl-7-oxo-4,7-dihydro-[1,2,4]triazolo[1,5-a]pyrimidin-6-yl)piperazin-1-yl)-2-oxoethyl)tetrahydrofuran-2-carboxamide]
< 0.1 µM | < 0.1 µM | CCc1c(N2CCN(C(=O)C(=O)Nc3cc(C)no3)CC2)c(=O)n2nc(C3=CCOCC3)nc2n1CC(=O)Nc1ccc(C(F)(F)F)cc1F [Example 324, 2-(4-(2-(3,6-Dihydro-2H-pyran-4-yl)-5-ethyl-4-(2-((2-fluoro-4-(trifluoromethyl)phenyl)amino)-2-oxoethyl)-7-oxo-4,7-dihydro-[1,2,4]triazolo[1,5-a]pyrimidin-6-yl)piperazin-1-yl)-N-(3-methylisoxazol-5-yl)-2-oxoacetamide]
